Data set [1] can be described thus: Drug uptake in tumor of BALB/c nude mouse xenografted with human HeLa cells 10 uM, iv measured after 6 to 36 hrs by fluorescence imaging based IVIS optical imaging analysis. To be noted: in vivo, time 6-36 hrs. In kind it is ADME, organism-based, Neoplasm. For orientation: Xenograft models place foreign cells or tissue in a host animal.
Data set [2] concerns HeLa. Put plainly: Induction of apoptosis in human HeLa cells assessed as late apoptotic cells at 30 uM incubated for 48 hrs by Annexin V/PI double staining base flow cytometry analysis (reference value: 12.5 %). The format is functional. A general note: A flow cytometer gives signals particle by particle.
Data set [3] deals with HeLa. Put plainly: Induction of apoptosis in human HeLa cells assessed as viable cells at 30 uM incubated for 24 hrs by Annexin V/PI double staining base flow cytometry analysis (reference value: 82.3 %). In kind it is functional. To be noted: read-out: Activity.
Data set [4] is described as follows: Prodrug activation in human HeLa cells assessed as increase in fluorescence at 10 uM within 6 hrs by confocal laser scanning microscopic method. The format is cell-based.
Data set [5] deals with MCF7. Put plainly: Antiproliferative activity against human MCF7 cells assessed as cell growth inhibition at 0.1 to 100 micromol/L measured after 48 hrs by MTT assay relative to control. The format is functional, cell-based. To be noted: dose 0.1-100 µmol/L. A general note: Formazan colour is commonly taken as a measure of viable cells.
Data set [6] has as its system HeLa. Put plainly: Induction of apoptosis in human HeLa cells assessed as necrotic cells at 30 uM incubated for 24 hrs by Annexin V/PI double staining base flow cytometry analysis (reference value: 2.65 %). In kind it is functional.
For data set [7], the system named is HeLa. Put plainly: Antiproliferative activity against human HeLa cells assessed as cell growth inhibition at 0.1 to 100 micromol/L measured after 24 hrs by MTT assay relative to control. In kind it is cell-based. To be noted: dose 0.1-100 µmol/L.
Data set [8] in a line: Drug uptake in tumor of BALB/c nude mouse xenografted with human HeLa cells 10 uM, iv measured after 24 hrs by fluorescence imaging based IVIS optical imaging analysis. The format is ADME, organism-based, Neoplasm. To be noted: in vivo.
Data set [9] is described as follows: Toxicity in human HeLa cells xenografted in BALB/c nude assessed as histological changes in heart at 5 mg/kg, iv administered every 3 days for 15 days by H and E staining based microscopic analysis. In kind it is organism-based. To be noted: in vivo, 360 h, time 15 day.
A short description of data set [10]: GSH-mediated prodrug activation assessed as increase in fluorescence intensity at 10 uM measured up to 2 hrs by real time fluorescence spectra.
In data set [11] the test system is HEK-293T. Put plainly: Antiproliferative activity against human HEK293T cells assessed as cell growth inhibition at 0.1 to 100 micromol/L measured after 48 hrs by MTT assay relative to control. To be noted: dose 0.1-100 µmol/L. In kind it is cell-based.
A short description of data set [12]: Toxicity in BALB/c nude mouse xenografted with human HeLa cells assessed as histological changes in kidney at 5 mg/kg, iv administered every 3 days for 15 days by H and E staining based microscopic analysis. In kind it is organism-based. To be noted: in vivo, 360 h, time 15 day.
Data set [13] can be described thus: GSH-mediated prodrug activation assessed as increase in fluorescence intensity at 10 uM by UV-vis absorption spectroscopy.
The test system of data set [14] is HeLa. Put plainly: Antitumor activity against human HeLa cells xenografted in BALB/c nude mouse assessed as reduction in tumor volume at 5 mg/kg, iv administered every 3 days for 15 days. In kind it is functional, organism-based. To be noted: time 15.0 day.
The subject of data set [15] is HeLa. As to the kind of experiment: Induction of apoptosis in human HeLa cells assessed as early apoptotic cells at 30 uM incubated for 48 hrs by Annexin V/PI double staining base flow cytometry analysis (reference value: 2.59 %). The format is functional.
The nature of data set [16]: Toxicity in human HeLa cells xenografted in BALB/c nude mouse assessed as histological changes in liver at 5 mg/kg, iv administered every 3 days for 15 days by H and E staining based microscopic analysis. In kind it is organism-based. To be noted: in vivo, 360 h, time 15 day.
Data set [17] concerns HeLa. As to the kind of experiment: Induction of apoptosis in human HeLa cells assessed as viable cells at 30 uM incubated for 48 hrs by Annexin V/PI double staining base flow cytometry analysis (reference value: 82.3 %). In kind it is functional. To be noted: read-out: Activity.
For data set [18], the system named is HEK-293T. Put plainly: Antiproliferative activity against human HEK293T cells assessed as cell growth inhibition at 0.1 to 100 micromol/L measured after 24 hrs by MTT assay relative to control. In kind it is functional, cell-based. To be noted: dose 0.1-100 µmol/L.
Data set [19] has as its system HepG2. Put plainly: Antiproliferative activity against human HepG2 cells assessed as cell growth inhibition at 0.1 to 100 micromol/L measured after 48 hrs by MTT assay relative to control. In kind it is functional, cell-based. To be noted: dose 0.1-100 µmol/L.
Data set [20] has as its system HepG2. As to the kind of experiment: Antiproliferative activity against human HepG2 cells assessed as cell growth inhibition at 0.1 to 100 micromol/L measured after 24 hrs by MTT assay relative to control. To be noted: dose 0.1-100 µmol/L. The format is functional, cell-based.
Data set [21] deals with HeLa. Put plainly: Induction of apoptosis in human HeLa cells assessed as necrotic cells at 30 uM incubated for 48 hrs by Annexin V/PI double staining base flow cytometry analysis (reference value: 2.65 %). In kind it is functional.
Data set [22] in a line: Prodrug activation in human HeLa cells assessed as increase in fluorescence at 10 uM within 6 hrs in the presence of N-ethylmalemide by confocal laser scanning microscopic method. In kind it is cell-based.
In data set [23] the test system is HeLa. Put plainly: Induction of apoptosis in human HeLa cells assessed as late apoptotic cells at 30 uM incubated for 24 hrs by Annexin V/PI double staining base flow cytometry analysis (reference value: 12.5 %). The format is functional.
The nature of data set [24]: GSH-mediated prodrug activation assessed as increase in fluorescence intensity at 10 uM measured at pH 5 by real time fluorescence spectra. To be noted: pH 5, 10 µM.
Data set [25] is described as follows: GSH-mediated prodrug activation assessed as increase in fluorescence intensity at 10 uM measured at 525 nm emission in presence of 0 to 500 uM of GSH by UV-vis absorption spectroscopy.
Data set [26] in a line: Toxicity in human HeLa cells xenografted in BALB/c nude mouse assessed as change in body weight at 5 mg/kg, iv administered every 3 days for 15 days. The format is organism-based. To be noted: in vivo, 360 h, time 15 day.
In data set [27] the test system is MCF7. Put plainly: Antiproliferative activity against human MCF7 cells assessed as cell growth inhibition at 0.1 to 100 micromol/L measured after 24 hrs by MTT assay relative to control. The format is functional, cell-based. To be noted: dose 0.1-100 µmol/L.
Data set [28] in a line: Toxicity in human HeLa cells xenografted in BALB/c nude assessed as histological changes in tumor at 5 mg/kg, iv administered every 3 days for 15 days by H and E staining based microscopic analysis. To be noted: in vivo, 360 h, time 15 day. The format is organism-based.
Data set [29] has as its system HeLa. As to the kind of experiment: Induction of apoptosis in human HeLa cells assessed as early apoptotic cells at 30 uM incubated for 24 hrs by Annexin V/PI double staining base flow cytometry analysis (reference value: 2.59 %). In kind it is functional.
Data set [30] has as its system HeLa. As to the kind of experiment: Antiproliferative activity against human HeLa cells assessed as cell growth inhibition at 0.1 to 100 micromol/L measured after 48 hrs by MTT assay relative to control. In kind it is functional, cell-based. To be noted: dose 0.1-100 µmol/L.
The nature of data set [31]: Toxicity in BALB/c nude mouse xenografted with human HeLa cells assessed as histological changes in spleen at 5 mg/kg, iv administered every 3 days for 15 days by H and E staining based microscopic analysis. In kind it is organism-based. To be noted: in vivo, 360 h, time 15 day.

Molecules are shown by their SMILES. Active and inactive are the calls of the source. No cut-off for these calls is given here.

Take `COc1ccc(OC(=O)CCCSSCCCC(=O)O[C@@H](C(=O)O[C@H]2C[C@@]3(O)[C@@H](OC(=O)c4ccccc4)[C@@H]4[C@]5(OC(C)=O)CO[C@@H]5C[C@H](O)[C@@]4(C)C(=O)[C@H](OC(C)=O)C(=C2C)C3(C)C)[C@@H](NC(=O)c2ccccc2)c2ccccc2)c(-c2nc3ccccc3s2)c1`: the Drug uptake result in data set [1] and in [8] was “Active” each time. Besides, the Activity in the data set on HeLa [2] is recorded as 72.4%; in the data set with HeLa [6] it was 3.59%; in the data set on HeLa [7], “Toxic”; in data set [9], “Non-Toxic”; in the data set with HEK-293T [11], “Toxic”; in data set [12] it was “Non-Toxic”. Moreover, the Activity with HeLa [15] was 14.4%; in [16] it was “Non-Toxic”; in the data set on HeLa [21], 4.86%; with HeLa [23] it was 28.7%; in [26] it was “Non-Toxic”; in data set [28] it was “Non-Toxic”. Besides, the figures for the Activity (in the data set with HeLa [29]; in data set [31]) were 6.79% and “Non-Toxic”, respectively. For the same compound, the values for the viability at 30 µM with HeLa [3] and with HeLa [17] were 60.9% and 8.39%, respectively. Also, the Drug metabolism result in data set [4], in [10], in data set [13], in [22], in data set [24] and in [25] was “Metabolite_Detected” throughout. The result in the data set with MCF7 [5], in the data set on HeLa [14], with HEK-293T [18], in the data set on HepG2 [19], in the data set on HepG2 [20] and in the data set with MCF7 [27] was Active. Besides, the outcome with HeLa [30] was Active.
With `CC(=O)O[C@H]1C(=O)[C@@]2(C)[C@H]([C@H](OC(=O)c3ccccc3)[C@]3(O)C[C@H](OC(=O)[C@H](O)[C@@H](NC(=O)c4ccccc4)c4ccccc4)C(C)=C1C3(C)C)[C@]1(OC(C)=O)CO[C@@H]1C[C@@H]2O` [PACLITAXEL], the Activity was 66.6% in the data set on HeLa [2]; 2.24% with HeLa [6]; 4.55% in the data set on HeLa [15]; 2.12% in the data set on HeLa [21]; 34.7% in the data set with HeLa [23]; “Non-Toxic” in [26]. Further, the Activity with HeLa [29] was determined as 10.6%. Besides, the viability at 30 µM was determined as 52.4% in the data set on HeLa [3] and 26.7% with HeLa [17]. For the same compound, in the data set on HeLa [14], the result was Active.

The values are drawn from ChEMBL document CHEMBL4828737, “Glutathione-responsive prodrug conjugates for image-guided combination in cancer therapy” (Eur J Med Chem, 2021).
